Laboratory results as given in patent publication US20220062296A1, “COMBINATIONS OF GABAA ALPHA 5 AGONISTS AND SV2A INHIBITORS AND METHODS OF USING IN THE TREATMENT OF COGNITIVE IMPAIRMENT” (AGENEBIO, INC., priority 2020, published 2022).

How the values were obtained:
aMCI subjects = assay: Explicit 3-alternative forced choice task (lure identification); format: in vivo, human
Text: There are various tests known in the art for assessing cognitive function in humans, for example and without limitation, the clinical global impression of change scale (CIBIC-plus scale); the Mini Mental State Exam (MMSE); the Neuropsychiatric Inventory (NPI); the Clinical Dementia Rating Scale (CDR); the Cambridge Neuropsychological Test Automated Battery (CANTAB); the Sandoz Clinical Assessment-Geriatric (SCAG), the Buschke Selective Reminding Test (Buschke and Fuld, 1974); the Verbal Paired Associates subtest; the Logical Memory subtest; the Visual Reproduction sub test of the Wechsler Memory Scale-Revised (WMS-R) (Wechsler, 1997); the Benton Visual Retention Test, or MATRICS consensus neuropsychological test battery which includes tests of working memory, speed of processing, attention, verbal learning, visual learning, reasoning and problem solving and social cognition. See Folstein et al., J Psychiatric Res 12: 189-98, (1975); Robbins et al., Dementia 5: 266-81, (1994); Rey, L'examen clinique en psychologie, (1964); Kluger et al., J Geriatr Psychiatry Neurol 12:168-79, (1999); Marquis et al., 2002 and Masur et al., 1994. Also see Buchanan, R. W., Keefe, R. S. E., Umbricht, D., Green, M. F., Laughren, T., and Marder, S. R. (2011), The FDA-NIMH-MATRICS guidelines for clinical trial design of cognitive-enhancing drugs: what do we know 5 years later? Schizophr. Bull. 37, 1209-1217. Another example of a cognitive test in humans is the explicit 3-alternative forced choice task. […]
(§1) The activity of the subject's medial temporal lobe is measured by functional MRI during the subject's participation in an explicit 3-alternative forced choice task, where participants view novel, repeated and similar (“lure”) stimuli. […]
as §1

[1] = test system: entorhinal cortex of aMCI subjects; assay: fMRI activity in entorhinal cortex (EC) during explicit 3-alternative forced choice task; format: in vivo, human; conditions: levetiracetam 125 mg twice a day for two weeks
Description: A within-subjects trial of 8 weeks duration, involving 17 amnestic MCI (aMCI) subjects and 17 age-matched controls with a low dose treatment of levetiracetam is conducted. During the course of the study, each aMCI subject receives both drug and placebo treatments separately in two periods of two weeks each, with the order of treatments among different aMCI subjects counterbalanced (see FIG. 4). Age-matched control subjects treated with placebo serve as a further control. Cognitive testing and fMRI imaging data are obtained from the subjects after each two-week period of drug/placebo treatment. Imaging data are obtained through high-resolution methods developed in the Stark laboratory. Data are collected on a Phillips 3 Tesla scanner (Eindhoven, The Netherlands) equipped with an 8-channel SENSE (Sensitivity Encoding) head coil, located at the F.M. Kirby Research Center for Functional Brain Imaging at the Kennedy Krieger Institute (Baltimore, Md.). […] Group data are analyzed using a two-way Analysis of Variance (ANOVA) with trial types and group as fixed factors, and subject as a random factor nested within group. […] The activity of the subject's medial temporal lobe is measured by functional MRI during the subject's participation in an explicit 3-alternative forced choice task, where participants view novel, repeated and similar (“lure”) stimuli. […]

CC[C@@H](C(N)=O)N1CCCC1=O [levetiracetam, (2S)-2-(2-oxopyrrolidin-1-yl)butanamide]
performance in the explicit 3-alternative forced choice task (aMCI subjects; levetiracetam 62.5 mg BID, p=0.041): improves significantly
performance in the explicit 3-alternative forced choice task (aMCI subjects; levetiracetam 125 mg twice a day for two weeks, p=0.039): improves significantly
performance in the explicit 3-alternative forced choice task (aMCI subjects; levetiracetam 250 mg BID, p=0.2396): does not significantly improve
EC activity during memory judgments [1]: increases EC activity
